From patent publication US20240368127A1, “HSD17B13 INHIBITORS AND USES THEREOF” (FL2022-001, Inc., priority 2021, published 2024)

Target: T1, Recombinant human HSD17B13 enzyme (Homo sapiens, UniProt Q7Z5P4)
T1 sequence (Q7Z5P4 20-300): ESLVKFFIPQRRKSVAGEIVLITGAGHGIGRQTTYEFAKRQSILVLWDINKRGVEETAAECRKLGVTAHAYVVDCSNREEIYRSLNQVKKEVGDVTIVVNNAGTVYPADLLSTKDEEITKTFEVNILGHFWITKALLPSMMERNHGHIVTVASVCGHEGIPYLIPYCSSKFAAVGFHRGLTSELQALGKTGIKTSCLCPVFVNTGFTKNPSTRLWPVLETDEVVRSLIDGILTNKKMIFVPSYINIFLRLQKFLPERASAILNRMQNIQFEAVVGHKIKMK
Assay: HSD17b13 NAD(P)H-Glo biochemical assay
Details: 50 μM estradiol, 1 mM NAD+, 37° C. for 3 hours; read-out: HSD17β13 IC50
Procedure, shortened: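 Enzyme preincubated with inhibitor 20 min at RT in 20 mM Tris pH7.4, 0.002% Tween-20, 0.02% BSA, then reacted 3 h at 37° C with 50 μM estradiol and 1 mM NAD+ (final). NADH formation read by NAD(P)H-Glo luminescence after 1 h at RT.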

Structure (SMILES)	IC50
COc1ccc(C[C@@H]2COCCN2c2ncc3c(-c4cc(C(F)(F)F)c(F)c(O)c4F)nn(C)c3n2)cc1 [Compound 5.28, (R)-2,6-Difluoro-3-(6-(3-(4-methoxybenzyl)morpholino)-1-methyl-1H-pyrazolo[3,4-d]pyrimidin-3-yl)-5-(trifluoromethyl)phenol]	≤ 100 nM
Cn1nc(-c2cc(C(F)(F)F)c(F)c(O)c2F)c2cnc(N3CCOCC3CN3CCCC3)nc21 (stereo not drawn) [Compound 5.29, 2,6-Difluoro-3-(1-methyl-6-(3-(pyrrolidin-1-ylmethyl)morpholino)-1H-pyrazolo[3,4-d]pyrimidin-3-yl)-5-(trifluoromethyl)phenol]	100 to 1000 nM
Cn1nc(-c2cc(C(F)(F)F)c(F)c(O)c2F)c2cnc(N3CCC[C@@H]3Cc3ccccc3)nc21 [Compound 5.30, (R)-3-(6-(2-Benzylpyrrolidin-1-yl)-1-methyl-1H-pyrazolo[3,4-d]pyrimidin-3-yl)-2,6-difluoro-5-(trifluoromethyl)phenol]	≤ 100 nM
Cn1nc(-c2cc(C(F)(F)F)c(F)c(O)c2F)c2cnc(N3CCNC[C@H]3Cc3ccccc3)nc21 [Compound 5.31, (R)-3-(6-(2-Benzylpiperazin-1-yl)-1-methyl-1H-pyrazolo[3,4-d]pyrimidin-3-yl)-2,6-difluoro-5-(trifluoromethyl)phenol]	≤ 100 nM
Cn1nc(-c2cc(C(F)(F)F)c(F)c(O)c2F)c2cnc(N3CCCCC3Cc3ccccc3)nc21 (stereo not drawn) [Compound 5.32, 3-(6-(2-Benzylpiperidin-1-yl)-1-methyl-1H-pyrazolo[3,4-d]pyrimidin-3-yl)-2,6-difluoro-5-(trifluoromethyl)phenol]	≤ 100 nM
Cn1nc(-c2cc(C(F)(F)F)c(F)c(O)c2F)c2cnc(N3CCN(S(C)(=O)=O)C(CC4CC4)C3)nc21 (stereo not drawn) [Compound 5.33, 3-(6-(3-(Cyclopropylmethyl)-4-(methylsulfonyl)piperazin-1-yl)-1-methyl-1H-pyrazolo[3,4-d]pyrimidin-3-yl)-2,6-difluoro-5-(trifluoromethyl)phenol]	≤ 100 nM
Cn1nc(-c2cc(C(F)(F)F)c(F)c(O)c2F)c2cnc(N3CCCCC3Cn3cncn3)nc21 (stereo not drawn) [Compound 5.34, 3-(6-(2-((1H-1,2,4-Triazol-1-yl)methyl)piperidin-1-yl)-1-methyl-1H-pyrazolo[3,4-d]pyrimidin-3-yl)-2,6-difluoro-5-(trifluoromethyl)phenol]	100 to 1000 nM
CC(C)CC1COCCN1c1ncc2c(-c3cc(C(F)(F)F)c(F)c(O)c3F)nn(C)c2n1 (stereo not drawn) [Compound 5.35, 2,6-Difluoro-3-(6-(3-isobutylmorpholino)-1-methyl-1H-pyrazolo[3,4-d]pyrimidin-3-yl)-5-(trifluoromethyl)phenol]	≤ 100 nM
CN(c1ncc2c(-c3cc(C(F)(F)F)c(F)c(O)c3F)nn(C)c2n1)C1CCCN(Cc2ccccc2)C1 (stereo not drawn) [Compound 5.36, 3-(6-((1-Benzylpiperidin-3-yl)(methyl)amino)-1-methyl-1H-pyrazolo[3,4-d]pyrimidin-3-yl)-2,6-difluoro-5-(trifluoromethyl)phenol]	≤ 100 nM
Cn1nc(-c2cc(C(F)(F)F)c(F)c(O)c2F)c2cnc(N3CCN(S(C)(=O)=O)C(CC4CCC4)C3)nc21 (stereo not drawn) [Compound 5.37, 3-(6-(3-(Cyclobutylmethyl)-4-(methylsulfonyl)piperazin-1-yl)-1-methyl-1H-pyrazolo[3,4-d]pyrimidin-3-yl)-2,6-difluoro-5-(trifluoromethyl)phenol]	≤ 100 nM
COC(=O)N1CCN(c2ncc3c(-c4cc(C(F)(F)F)c(F)c(O)c4F)nn(C)c3n2)[C@H](Cc2ccccc2)C1 [Compound 6, Methyl (R)-3-benzyl-4-(3-(2,4-difluoro-3-hydroxy-5-(trifluoromethyl)phenyl)-1-methyl-1H-pyrazolo[3,4-d]pyrimidin-6-yl)piperazine-1-carboxylate]	≤ 100 nM
CN(C)C(=O)N1CCN(c2ncc3c(-c4cc(C(F)(F)F)c(F)c(O)c4F)nn(C)c3n2)[C@H](Cc2ccccc2)C1 [Compound 6.01, (R)-3-Benzyl-4-(3-(2,4-difluoro-3-hydroxy-5-(trifluoromethyl)phenyl)-1-methyl-1H-pyrazolo[3,4-d]pyrimidin-6-yl)-N,N-dimethylpiperazine-1-carboxamide]	≤ 100 nM
CC(=O)N1CCN(c2ncc3c(-c4cc(C(F)(F)F)c(F)c(O)c4F)nn(C)c3n2)[C@H](Cc2ccccc2)C1 [Compound 6.02, (R)-1-(3-Benzyl-4-(3-(2,4-difluoro-3-hydroxy-5-(trifluoromethyl)phenyl)-1-methyl-1H-pyrazolo[3,4-d]pyrimidin-6-yl)piperazin-1-yl)ethan-1-one]	≤ 100 nM
COCC(=O)N1CCN(c2ncc3c(-c4cc(C(F)(F)F)c(F)c(O)c4F)nn(C)c3n2)[C@H](Cc2ccccc2)C1 [Compound 6.03, (R)-1-(3-Benzyl-4-(3-(2,4-difluoro-3-hydroxy-5-(trifluoromethyl)phenyl)-1-methyl-1H-pyrazolo[3,4-d]pyrimidin-6-yl)piperazin-1-yl)-2-methoxyethan-1-one]	≤ 100 nM
CC(=O)N1CCN(c2ncc3c(-c4cc(C(F)(F)F)c(F)c(O)c4F)nn(C)c3n2)C[C@@H]1Cc1ccccc1 [Compound 6.04, (S)-1-(2-Benzyl-4-(3-(2,4-difluoro-3-hydroxy-5-(trifluoromethyl)phenyl)-1-methyl-1H-pyrazolo[3,4-d]pyrimidin-6-yl)piperazin-1-yl)ethan-1-one]	≤ 100 nM
CC(=O)N1CCN(c2ncc3c(-c4cc(C(F)(F)F)c(F)c(O)c4F)nn(C)c3n2)C[C@H]1Cc1ccccc1 [Compound 6.05, (R)-1-(2-Benzyl-4-(3-(2,4-difluoro-3-hydroxy-5-(trifluoromethyl)phenyl)-1-methyl-1H-pyrazolo[3,4-d]pyrimidin-6-yl)piperazin-1-yl)ethan-1-one]	≤ 100 nM
CNC(=O)N1CCN(c2ncc3c(-c4cc(C(F)(F)F)c(F)c(O)c4F)nn(C)c3n2)C[C@@H]1Cc1ccccc1 [Compound 6.06, (S)-2-Benzyl-4-(3-(2,4-difluoro-3-hydroxy-5-(trifluoromethyl)phenyl)-1-methyl-1H-pyrazolo[3,4-d]pyrimidin-6-yl)-N-methylpiperazine-1-carboxamide]	≤ 100 nM
CN(C)C(=O)N1CCN(c2ncc3c(-c4cc(C(F)(F)F)c(F)c(O)c4F)nn(C)c3n2)C[C@@H]1Cc1ccccc1 [Compound 6.07, (S)-2-Benzyl-4-(3-(2,4-difluoro-3-hydroxy-5-(trifluoromethyl)phenyl)-1-methyl-1H-pyrazolo[3,4-d]pyrimidin-6-yl)-N,N-dimethylpiperazine-1-carboxamide]	100 to 1000 nM
COC(=O)N1CCN(c2ncc3c(-c4cc(C(F)(F)F)c(F)c(O)c4F)nn(C)c3n2)C[C@@H]1Cc1ccccc1 [Compound 6.08, Methyl (S)-2-benzyl-4-(3-(2,4-difluoro-3-hydroxy-5-(trifluoromethyl)phenyl)-1-methyl-1H-pyrazolo[3,4-d]pyrimidin-6-yl)piperazine-1-carboxylate]	≤ 100 nM
CCC(=O)N1CCN(c2ncc3c(-c4cc(C(F)(F)F)c(F)c(O)c4F)nn(C)c3n2)[C@H](Cc2ccccc2)C1 [Compound 6.09, (R)-1-(3-Benzyl-4-(3-(2,4-difluoro-3-hydroxy-5-(trifluoromethyl)phenyl)-1-methyl-1H-pyrazolo[3,4-d]pyrimidin-6-yl)piperazin-1-yl)propan-1-one]	≤ 100 nM

Second part, the compound after the results:

IC50	Structure (SMILES)
≤ 100 nM	CN(c1ncc2c(-c3cc(C(F)(F)F)c(F)c(O)c3F)nn(C)c2n1)C1(Cc2ccccc2)CCOCC1 [Compound 11.07, 3-(6-((4-Benzyltetrahydro-2H-pyran-4-yl)(methyl)amino)-1-methyl-1H-pyrazolo[3,4-d]pyrimidin-3-yl)-2,6-difluoro-5-(trifluoromethyl)phenol]
≤ 100 nM	Cc1cc(-c2nn(C)c3nc(N4CCN(S(C)(=O)=O)C[C@H]4Cc4ccccc4)ncc23)c(F)c(O)c1F [Compound 11.08, (R)-3-(6-(2-Benzyl-4-(methylsulfonyl)piperazin-1-yl)-1-methyl-1H-pyrazolo[3,4-d]pyrimidin-3-yl)-2,6-difluoro-5-methylphenol]
≤ 100 nM	Cn1nc(-c2cc(F)c(F)c(O)c2F)c2cnc(N3CCN(S(C)(=O)=O)C[C@H]3Cc3ccccc3)nc21 [Compound 11.09, (R)-3-(6-(2-Benzyl-4-(methylsulfonyl)piperazin-1-yl)-1-methyl-1H-pyrazolo[3,4-d]pyrimidin-3-yl)-2,5,6-trifluorophenol]
≤ 100 nM	Cn1nc(-c2cc(F)c(Cl)c(O)c2F)c2cnc(N3CCN(S(C)(=O)=O)C[C@H]3Cc3ccccc3)nc21 [Compound 11.10, (R)-3-(6-(2-Benzyl-4-(methylsulfonyl)piperazin-1-yl)-1-methyl-1H-pyrazolo[3,4-d]pyrimidin-3-yl)-6-chloro-2,5-difluorophenol]
1000 to 30000 nM	Cn1nc(-c2cccc(O)c2)c2cnc(N3CCN(S(C)(=O)=O)C[C@H]3Cc3ccccc3)nc21 [Compound 11.11, (R)-3-(6-(2-Benzyl-4-(methylsulfonyl)piperazin-1-yl)-1-methyl-1H-pyrazolo[3,4-d]pyrimidin-3-yl)phenol]
≤ 100 nM	Cn1nc(-c2cc(Cl)c(F)c(O)c2F)c2cnc(N3CCN(S(C)(=O)=O)C[C@H]3Cc3ccccc3)nc21 [Compound 11.12, (R)-3-(6-(2-Benzyl-4-(methylsulfonyl)piperazin-1-yl)-1-methyl-1H-pyrazolo[3,4-d]pyrimidin-3-yl)-5-chloro-2,6-difluorophenol]
≤ 100 nM	Cn1nc(-c2cc(C(F)(F)F)c(F)c(O)c2F)c2cnc(N3CCN(S(C)(=O)=O)CC3CC3CC3)nc21 (stereo not drawn) [Compound 11.13, 3-(6-(2-(Cyclopropylmethyl)-4-(methylsulfonyl)piperazin-1-yl)-1-methyl-1H-pyrazolo[3,4-d]pyrimidin-3-yl)-2,6-difluoro-5-(trifluoromethyl)phenol]
